Test results: US20260216176A1, “USE OF PCLX-001 OR PCLX-002 AS A RADIOSENSITIZER” (ACYLEX PHARMACEUTICALS INC., priority 2023, published 2026)
Where “and” joins values, the source holds several entries; their conditions need not be identical. Equal values may be shown once. Read-outs that look alike come from different tables or passages of the source.

Experiments:
[1] = Plasma, brain and CSF pharmacokinetics and brain tissue accumulation in mice (LC-MS/MS); format: in vivo, male C57BL/6 mice; settings: for Cmax: read-out: C0/Cmax; for half-life: read-out: T½ (converted)
[2] = system: U251 glioblastoma cell line; assay: Alamar Blue cell viability assay of radiosensitization (PCLX-001 pre-treatment plus radiation); format: cell-based, human
Description: Cancer cell lines of human origin were cultivated in the suitable culture medium enriched with 10% fetal bovine serum (FBS) and a 1% mixture of penicillin-streptomycin. These were incubated at a temperature of 37° C. in a 5% CO2 humid environment. The cells were sub-cultured upon reaching a confluence of 80% with the aid of 0.25% trypsin-EDTA [Freshney, R. I., 2010. Culture of animal cells: a manual of basic technique and specialized applications. John Wiley & Sons].
PCLX-001 was prepared at several concentrations for use as a radiosensitizing drug (serial dilutions from 1000 nM, including control 0 nM) in culture media. The cancer cells cultures were then treated with the aforementioned PCLX-001 concentrations and left for 24 h, 48 h, 72 h, and 96 h to allow for maximum pharmacodynamic effect. The cells were then plated into 96-well plates at 5000 cells per well and left to attach overnight while continuing to incubate in the drug/media cocktail.
Upon completion of the PCLX-001 incubation period, a single radiation dose was administered to the cells using a preclinical irradiator. The quantity of radiation was decided based on the results from prior optimization tests [Hall, E. J., Giaccia, A. J., 2012. Radiobiology for the radiologist. Lippincott Williams & Wilkins.]. The radiation doses included 0, 2, and 4 Gy, which corresponds to the most common clinical radiation dose fractions used.
72 hours post-radiation, an Alamar Blue Assay was conducted to determine cell viability. Alamar Blue dye was added to the media (10% v/v) and the plates were incubated at 37° C. for 4 hours. Using a fluorescence plate reader, fluorescence was measured at excitation/emission wavelengths of 560/590 nm. To quantify cell viability, the results were normalized to the data from untreated controls [Ahmed, S. A., et al., 1994].
The data were shown as mean±standard deviation (SD) gathered from three or more independent tests. A one-way ANOVA followed by a post hoc Tukey test was used for statistical analyses to find significant disparities between treatment groups. […]

[3] = male, C57BL/6, mouse, oral gavage 5 mg/kg, Brain
[4] = male, C57BL/6, mouse, oral gavage 5 mg/kg, CSF
[5] = male, C57BL/6, mouse, oral gavage 5 mg/kg, Plasma

Structure (SMILES): Cc1c(N[S+](=O)(O)c2c(Cl)cc(-c3ccnc(N4CCNCC4)c3)cc2Cl)c(CC(C)C)nn1C [PCLX-001]
- Plasma Conc. ([1]; 5 mg/kg oral, time point 0.00 h, individual animals): 0.00 nM
- concentration at 8 h ([1]; 5 mg/kg oral, time point 0.00 h, individual animals, read-out: Brain Conc.): 0.00 nM
- concentration at 24 h ([1]; 5 mg/kg oral, time point 0.00 h, individual animals, read-out: CSF Conc.): 0.00 nM
- Plasma Conc. ([1]; 5 mg/kg oral, time point 0.25 h, individual animals): 6762.56 nM and 8570.40 nM
- concentration at 8 h ([1]; 5 mg/kg oral, time point 0.25 h, individual animals, read-out: Brain Conc.): 73.74 nM and 86.13 nM
- concentration at 24 h ([1]; 5 mg/kg oral, time point 0.25 h, individual animals, read-out: CSF Conc.): 11.50 nM and 3.78 nM and 7.47 nM
- Plasma Conc. ([1]; 5 mg/kg oral, time point 0.50 h, individual animals): 8294.21 nM and 6591.89 nM
- concentration at 8 h ([1]; 5 mg/kg oral, time point 0.50 h, individual animals, read-out: Brain Conc.): 122.31 nM and 138.42 nM
- concentration at 24 h ([1]; 5 mg/kg oral, time point 0.50 h, individual animals, read-out: CSF Conc.): 4.19 nM and 2.89 nM
- Plasma Conc. ([1]; 5 mg/kg oral, time point 1.00 h, individual animals): 9051.65 nM and 8883.32 nM
- concentration at 8 h ([1]; 5 mg/kg oral, time point 1.00 h, individual animals, read-out: Brain Conc.): 54.48 nM and 64.47 nM
- concentration at 24 h ([1]; 5 mg/kg oral, time point 1.00 h, individual animals, read-out: CSF Conc.): 2.72 nM and 8.67 nM and 3.50 nM
- Plasma Conc. ([1]; 5 mg/kg oral, time point 2.00 h, individual animals): 5724.05 nM and 5659.43 nM
- concentration at 8 h ([1]; 5 mg/kg oral, time point 2.00 h, individual animals, read-out: Brain Conc.): 185.79 nM and 81.69 nM and 204.51 nM
- concentration at 24 h ([1]; 5 mg/kg oral, time point 2.00 h, individual animals, read-out: CSF Conc.): 7.26 nM and 15.58 nM and 16.86 nM
- Plasma Conc. ([1]; 5 mg/kg oral, time point 4.00 h, individual animals): 13975.97 nM and 6234.47 nM and 11667.07 nM
- concentration at 8 h ([1]; 5 mg/kg oral, time point 4.00 h, individual animals, read-out: Brain Conc.): 243.03 nM and 114.75 nM and 171.09 nM
- concentration at 24 h ([1]; 5 mg/kg oral, time point 4.00 h, individual animals, read-out: CSF Conc.): 15.26 nM and 6.67 nM and 87.98 nM
- Plasma Conc. ([1]; 5 mg/kg oral, time point 8.00 h, individual animals): 2821.68 nM and 6573.92 nM and 6832.35 nM
- concentration at 8 h ([1]; 5 mg/kg oral, time point 8.00 h, individual animals, read-out: Brain Conc.): 135.06 nM and 148.56 nM
- concentration at 24 h ([1]; 5 mg/kg oral, time point 8.00 h, individual animals, read-out: CSF Conc.): 30.28 nM and 5.97 nM and 7.19 nM
- Plasma Conc. ([1]; 5 mg/kg oral, time point 24.00 h, individual animals): 6.38 nM and 4.10 nM
- concentration at 8 h ([1]; 5 mg/kg oral, time point 24.00 h, individual animals, read-out: Brain Conc.): 0.00 nM and 8.13 nM and 12.81 nM
- concentration at 24 h ([1]; 5 mg/kg oral, time point 24.00 h, individual animals, read-out: CSF Conc.): 0.00 nM
- time of peak brain drug concentrations ([1]; after oral administration): approximately 4 h
- concentration at 0.5 h ([1]; male, C57BL/6, mouse, CSF, oral, 5 mg/kg, 5 mg/kg oral, time point 0.50 h, individual animals, read-out: CSF Conc.): 3.44 nM
- concentration at 24 h ([1]; male, C57BL/6, mouse, CSF, oral, 5 mg/kg, 5 mg/kg oral, time point 24.00 h, individual animals, read-out: CSF Conc.): 0 nM
- Kp at 0.25 h ([1]; male, C57BL/6, mouse, brain and CSF, 5 mg/kg oral, time point 0.25 h, read-out: Brain/CSF-Kp): 13
- concentration at 0.25 h ([1]; male, C57BL/6, mouse, brain, oral, 5 mg/kg, 5 mg/kg oral, time point 0.25 h, individual animals, read-out: Brain Conc.): 135 nM
- concentration at 0.25 h ([1]; male, C57BL/6, mouse, brain, oral, 5 mg/kg, 5 mg/kg oral, time point 0.25 h, read-out: Mean Brain Conc.): 98.3 nM
- concentration at 0.5 h ([1]; male, C57BL/6, mouse, brain, oral, 5 mg/kg, 5 mg/kg oral, time point 0.50 h, individual animals, read-out: Brain Conc.): 108 nM
- concentration at 0.5 h ([1]; male, C57BL/6, mouse, brain, oral, 5 mg/kg, 5 mg/kg oral, time point 0.50 h, read-out: Mean Brain Conc.): 123 nM
- concentration at 1 h ([1]; male, C57BL/6, mouse, brain, oral, 5 mg/kg, 5 mg/kg oral, time point 1.00 h, individual animals, read-out: Brain Conc.): 75.5 nM
- concentration at 1 h ([1]; male, C57BL/6, mouse, brain, oral, 5 mg/kg, 5 mg/kg oral, time point 1.00 h, read-out: Mean Brain Conc.): 64.8 nM
- concentration at 2 h ([1]; male, C57BL/6, mouse, brain, oral, 5 mg/kg, 5 mg/kg oral, time point 2.00 h, read-out: Mean Brain Conc.): 157 nM
- concentration at 4 h ([1]; male, C57BL/6, mouse, brain, oral, 5 mg/kg, 5 mg/kg oral, time point 4.00 h, read-out: Mean Brain Conc.): 176 nM
- concentration at 8 h ([1]; male, C57BL/6, mouse, brain, oral, 5 mg/kg, 5 mg/kg oral, time point 8.00 h, individual animals, read-out: Brain Conc.): 79.3 nM
- concentration at 8 h ([1]; male, C57BL/6, mouse, brain, oral, 5 mg/kg, 5 mg/kg oral, time point 8.00 h, read-out: Mean Brain Conc.): 121 nM
- concentration at 24 h ([1]; male, C57BL/6, mouse, brain, oral, 5 mg/kg, 5 mg/kg oral, time point 24.00 h, read-out: Mean Brain Conc.): 6.98 nM
- Kp at 0.5 h ([1]; male, C57BL/6, mouse, brain/CSF, 5 mg/kg oral, time point 0.50 h, read-out: Brain/CSF-Kp): 35
- Kp at 1 h ([1]; male, C57BL/6, mouse, brain/CSF, 5 mg/kg oral, time point 1.00 h, read-out: Brain/CSF-Kp): 13.1
- Kp at 2 h ([1]; male, C57BL/6, mouse, brain/CSF, 5 mg/kg oral, time point 2.00 h, read-out: Brain/CSF-Kp): 11.9
- Kp at 4 h ([1]; male, C57BL/6, mouse, brain/CSF, 5 mg/kg oral, time point 4.00 h, read-out: Brain/CSF-Kp): 4.81
- Kp at 8 h ([1]; male, C57BL/6, mouse, brain/CSF, 5 mg/kg oral, time point 8.00 h, read-out: Brain/CSF-Kp): 8.35
- Kp at 0.25 h ([1]; male, C57BL/6, mouse, brain/plasma, 5 mg/kg oral, time point 0.25 h, read-out: B/P-Kp (brain to plasma ratio)): 0.01
- Kp at 0.5 h ([1]; male, C57BL/6, mouse, brain/plasma, 5 mg/kg oral, time point 0.50 h, read-out: B/P-Kp (brain to plasma ratio)): 0.02
- Kp at 1 h ([1]; male, C57BL/6, mouse, brain/plasma, 5 mg/kg oral, time point 1.00 h, read-out: B/P-Kp (brain to plasma ratio)): 0.01
- Kp at 2 h ([1]; male, C57BL/6, mouse, brain/plasma, 5 mg/kg oral, time point 2.00 h, read-out: B/P-Kp (brain to plasma ratio)): 0.02
- Kp at 4 h ([1]; male, C57BL/6, mouse, brain/plasma, 5 mg/kg oral, time point 4.00 h, read-out: B/P-Kp (brain to plasma ratio)): 0.02
- Kp at 8 h ([1]; male, C57BL/6, mouse, brain/plasma, 5 mg/kg oral, time point 8.00 h, read-out: B/P-Kp (brain to plasma ratio)): 0.02
- Kp at 24 h ([1]; male, C57BL/6, mouse, brain/plasma, 5 mg/kg oral, time point 24.00 h, read-out: B/P-Kp (brain to plasma ratio)): 1.24
- concentration at 0.25 h ([1]; male, C57BL/6, mouse, plasma, oral, 5 mg/kg, 5 mg/kg oral, time point 0.25 h, individual animals, read-out: Plasma Conc.): 9590 nM
- concentration at 0.25 h ([1]; male, C57BL/6, mouse, plasma, oral, 5 mg/kg, 5 mg/kg oral, time point 0.25 h, read-out: Mean Plasma Conc.): 8310 nM
- concentration at 0.5 h ([1]; male, C57BL/6, mouse, plasma, oral, 5 mg/kg, 5 mg/kg oral, time point 0.50 h, individual animals, read-out: Plasma Conc.): 4650 nM
- concentration at 0.5 h ([1]; male, C57BL/6, mouse, plasma, oral, 5 mg/kg, 5 mg/kg oral, time point 0.50 h, read-out: Mean Plasma Conc.): 6510 nM
- concentration at 1 h ([1]; male, C57BL/6, mouse, plasma, oral, 5 mg/kg, 5 mg/kg oral, time point 1.00 h, individual animals, read-out: Plasma Conc.): 7240 nM
- concentration at 1 h ([1]; male, C57BL/6, mouse, plasma, oral, 5 mg/kg, 5 mg/kg oral, time point 1.00 h, read-out: Mean Plasma Conc.): 8390 nM
- concentration at 2 h ([1]; male, C57BL/6, mouse, plasma, oral, 5 mg/kg, 5 mg/kg oral, time point 2.00 h, individual animals, read-out: Plasma Conc.): 9730 nM
- concentration at 2 h ([1]; male, C57BL/6, mouse, plasma, oral, 5 mg/kg, 5 mg/kg oral, time point 2.00 h, read-out: Mean Plasma Conc.): 7040 nM
- concentration at 4 h ([1]; male, C57BL/6, mouse, plasma, oral, 5 mg/kg, 5 mg/kg oral, time point 4.00 h, read-out: Mean Plasma Conc.): 10600 nM
- concentration at 8 h ([1]; male, C57BL/6, mouse, plasma, oral, 5 mg/kg, 5 mg/kg oral, time point 8.00 h, read-out: Mean Plasma Conc.): 5410 nM
- concentration at 24 h ([1]; male, C57BL/6, mouse, plasma, oral, 5 mg/kg, 5 mg/kg oral, time point 24.00 h, individual animals, read-out: Plasma Conc.): 6.39 nM
- concentration at 24 h ([1]; male, C57BL/6, mouse, plasma, oral, 5 mg/kg, 5 mg/kg oral, time point 24.00 h, read-out: Mean Plasma Conc.): 5.63 nM
- AUC(0-t) [1, 3]: 2.15 µM·h
- Tmax [1, 3]: 4 h
- Cmax [1, 3]: 176 nM
- Kp ([1]; male, C57BL/6, mouse, oral gavage 5 mg/kg, Brain, read-out: T/P ratio (Tissue to plasma AUClast ratio)): 0.02
- half-life [1, 3]: 4.17 h
- AUC(0-t) [1, 4]: 0.166 µM·h
- Tmax [1, 4]: 4 h
- Cmax [1, 4]: 36.6 nM
- AUC(0-t) [1, 5]: 108 µM·h
- Tmax [1, 5]: 4 h
- bioavailability [1, 5]: 97%
- Cmax [1, 5]: 10600 nM
- half-life [1, 5]: 1.77 h
- dose-enhancement factor ([2]; U251, below 25 nM): below 1.2
- toxicity of the drug itself versus radiotherapy effect ([2]; above 150 nM): toxicity of the drug itself exceeds the effect of typical radiotherapy dose-per-fraction's effect
- increase of radiotherapy's effectiveness ([2]; cancer cell line tested (human glioblastoma)): about 80%
